{"source": "patent US8765940B2", "about": "(priority 2009, dated 2014)"}
{"molecular_target": "PI3Kδ (Homo sapiens (Human), UniProt O00329)", "sequence (O00329 whole entry)": "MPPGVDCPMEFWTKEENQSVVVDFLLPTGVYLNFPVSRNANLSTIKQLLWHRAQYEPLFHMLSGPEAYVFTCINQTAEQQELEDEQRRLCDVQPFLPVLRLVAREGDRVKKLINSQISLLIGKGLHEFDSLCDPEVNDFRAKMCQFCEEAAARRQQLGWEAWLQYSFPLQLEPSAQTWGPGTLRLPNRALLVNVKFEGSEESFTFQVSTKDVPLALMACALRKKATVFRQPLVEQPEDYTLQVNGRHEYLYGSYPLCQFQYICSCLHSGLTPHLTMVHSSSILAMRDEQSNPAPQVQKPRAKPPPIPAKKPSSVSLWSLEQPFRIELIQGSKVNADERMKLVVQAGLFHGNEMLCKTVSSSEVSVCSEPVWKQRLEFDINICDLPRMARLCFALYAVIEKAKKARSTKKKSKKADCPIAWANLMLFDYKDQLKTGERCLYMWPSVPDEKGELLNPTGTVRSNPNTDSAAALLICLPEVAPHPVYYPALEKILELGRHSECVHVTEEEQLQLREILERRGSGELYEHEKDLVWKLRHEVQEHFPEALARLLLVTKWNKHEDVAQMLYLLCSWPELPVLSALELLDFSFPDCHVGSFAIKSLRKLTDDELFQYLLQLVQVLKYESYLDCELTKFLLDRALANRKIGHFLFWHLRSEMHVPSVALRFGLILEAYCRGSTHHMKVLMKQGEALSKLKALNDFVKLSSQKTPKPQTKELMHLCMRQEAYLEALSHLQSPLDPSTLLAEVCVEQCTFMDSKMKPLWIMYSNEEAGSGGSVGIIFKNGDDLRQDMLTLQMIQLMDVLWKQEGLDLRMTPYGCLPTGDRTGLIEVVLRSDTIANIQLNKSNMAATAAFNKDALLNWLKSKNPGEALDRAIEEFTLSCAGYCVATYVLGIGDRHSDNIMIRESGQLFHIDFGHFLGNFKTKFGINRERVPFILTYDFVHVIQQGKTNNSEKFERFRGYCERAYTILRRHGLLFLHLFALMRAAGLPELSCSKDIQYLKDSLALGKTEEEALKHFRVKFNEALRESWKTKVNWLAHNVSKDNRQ", "sequence (P27986 whole entry partner)": "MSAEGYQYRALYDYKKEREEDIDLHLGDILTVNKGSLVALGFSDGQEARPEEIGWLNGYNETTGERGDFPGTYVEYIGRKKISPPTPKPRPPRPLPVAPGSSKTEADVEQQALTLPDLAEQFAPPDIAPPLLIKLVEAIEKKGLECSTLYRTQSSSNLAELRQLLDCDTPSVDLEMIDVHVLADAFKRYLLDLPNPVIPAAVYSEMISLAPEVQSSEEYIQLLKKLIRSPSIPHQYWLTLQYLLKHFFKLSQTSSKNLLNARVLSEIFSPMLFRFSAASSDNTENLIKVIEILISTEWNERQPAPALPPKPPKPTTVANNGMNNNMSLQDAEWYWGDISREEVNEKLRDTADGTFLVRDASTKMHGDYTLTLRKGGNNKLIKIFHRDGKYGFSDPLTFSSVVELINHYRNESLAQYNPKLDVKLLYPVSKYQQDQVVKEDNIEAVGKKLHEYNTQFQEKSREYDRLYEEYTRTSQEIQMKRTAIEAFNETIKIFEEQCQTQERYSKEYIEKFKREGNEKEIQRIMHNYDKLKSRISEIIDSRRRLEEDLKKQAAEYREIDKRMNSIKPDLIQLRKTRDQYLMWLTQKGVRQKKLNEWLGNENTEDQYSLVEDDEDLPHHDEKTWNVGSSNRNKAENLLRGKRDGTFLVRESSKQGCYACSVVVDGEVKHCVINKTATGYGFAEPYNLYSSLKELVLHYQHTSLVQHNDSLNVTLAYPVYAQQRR", "format": "biochemical", "details": "PI3Kδ Alphascreen assay", "units": {"Ki": "µM"}}
{"compound": "Cc1c(-c2cccc(F)c2)nc2ncccc2c1N1CC2(CCOCC2)c2ncc(N3CCOCC3)cc21", "note": "[1′-(2-(3-fluorophenyl)-3-methyl-1,8-naphthyridin-4-yl)-6′-(4-morpholinyl)-1′,2,2′,3,5,6-hexahydrospiro[pyran-4,3′-pyrrolo[3,2-b]pyridine]]", "Ki": 0.0278}
{"compound": "Cc1c(-c2ccccn2)nc2cnccc2c1N1CC2(CCOCC2)c2ncc(N3CCOCC3)cc21", "note": "[1′-(3-methyl-2-(2-pyridinyl)-1,7-naphthyridin-4-yl)-6′-(4-morpholinyl)-1′,2,2′,3,5,6-hexahydrospiro[pyran-4,3′-pyrrolo[3,2-b]pyridine]]", "Ki": 0.0307}
{"compound": "Cc1c(-c2ccccn2)nc2ncccc2c1N1CC2(CCOCC2)c2ncc(N3CCOCC3)cc21", "note": "[1′-(3-methyl-2-(2-pyridinyl)-1,8-naphthyridin-4-yl)-6′-(4-morpholinyl)-1′,2,2′,3,5,6-hexahydrospiro[pyran-4,3′-pyrrolo[3,2-b]pyridine]]", "Ki": 0.0659}
{"compound": "Cc1c(-c2ccccc2)nc2ncccc2c1N1CC2(CCOCC2)c2ncc(N3CCOCC3)cc21", "note": "[1′-(3-methyl-2-phenyl-1,8-naphthyridin-4-yl)-6′-(4-morpholinyl)-1′,2,2′,3,5,6-hexahydrospiro[pyran-4,3′-pyrrolo[3,2-b]pyridine]]", "Ki": 0.0226}
{"compound": "COc1cc(-c2nc3cc(F)cc(F)c3c(N3CC4(CCOCC4)c4ncc(N5CCOCC5)cc43)c2C)ccn1", "note": "[1′-(5,7-difluoro-2-(2-methoxy-4-pyridinyl)-3-methyl-4-quinolinyl)-6′-(4-morpholinyl)-1′,2,2′,3,5,6-hexahydrospiro[pyran-4,3′-pyrrolo[3,2-b]pyridine]]", "Ki": 0.00689}
{"compound": "Cc1c(N2CCNCC2)nc2cc(F)cc(F)c2c1N1CC2(CCOCC2)c2ncc(N3CCOCC3)cc21", "note": "[1′-(5,7-difluoro-3-methyl-2-(1-piperazinyl)-4-quinolinyl)-6′-(4-morpholinyl)-1′,2,2′,3,5,6-hexahydrospiro[pyran-4,3′-pyrrolo[3,2-b]pyridine]]", "Ki": 0.00137}
{"compound": "Cc1c(-c2ccccc2S(C)(=O)=O)nc2cc(F)cc(F)c2c1N1CC2(CCOCC2)c2ncc(N3CCOCC3)cc21", "note": "[1′-(5,7-difluoro-3-methyl-2-(2-(methylsulfonyl)phenyl)-4-quinolinyl)-6′-(4-morpholinyl)-1′,2,2′,3,5,6-hexahydrospiro[pyran-4,3′-pyrrolo[3,2-b]pyridine]]", "Ki": 0.00451}
{"compound": "Cc1c(-c2ccccn2)nc2cc(F)cc(F)c2c1N1CC2(CCOCC2)c2ncc(N3CCOCC3)cc21", "note": "[1′-(5,7-difluoro-3-methyl-2-(2-pyridinyl)-4-quinolinyl)-6′-(4-morpholinyl)-1′,2,2′,3,5,6-hexahydrospiro[pyran-4,3′-pyrrolo[3,2-b]pyridine]]", "Ki": 0.00944}
{"compound": "Cc1c(N2CCN(S(C)(=O)=O)CC2)nc2cc(F)cc(F)c2c1N1CC2(CCOCC2)c2ncc(N3CCOCC3)cc21", "note": "[1′-(5,7-difluoro-3-methyl-2-(4-(methylsulfonyl)-1-piperazinyl)-4-quinolinyl)-6′-(4-morpholinyl)-1′,2,2′,3,5,6-hexahydrospiro[pyran-4,3′-pyrrolo[3,2-b]pyridine]]", "Ki": 0.0023}
{"compound": "Cc1ccc(S(C)(=O)=O)c(-c2nc3cc(F)cc(F)c3c(N3CC4(CCOCC4)c4ncc(N5CCOCC5)cc43)c2C)c1", "note": "[1′-(5,7-difluoro-3-methyl-2-(5-methyl-2-(methylsulfonyl)phenyl)-4-quinolinyl)-6′-(4-morpholinyl)-1′,2,2′,3,5,6-hexahydrospiro[pyran-4,3′-pyrrolo[3,2-b]pyridine]]", "Ki": 0.00151}
{"compound": "Cc1c(-c2ccccn2)nc2cccc(F)c2c1N1CC2(CCOCC2)c2ncc(N3CCOCC3)cc21", "note": "[1′-(5-fluoro-3-methyl-2-(2-pyridinyl)-4-quinolinyl)-6′-(4-morpholinyl)-1′,2,2′,3,5,6-hexahydrospiro[pyran-4,3′-pyrrolo[3,2-b]pyridine]]", "Ki": 0.00648}
{"compound": "Cc1c(-c2ccccn2)nc2cc(F)ccc2c1N1CC2(CCOCC2)c2ncc(-c3cn[nH]c3)cc21", "note": "[1′-(7-fluoro-3-methyl-2-(2-pyridinyl)-4-quinolinyl)-6′-(1H-pyrazol-4-yl)-1′,2,2′,3,5,6-hexahydrospiro[pyran-4,3′-pyrrolo[3,2-b]pyridine]]", "Ki": 0.32}
{"compound": "Cc1c(-c2ccccn2)nc2cc(F)ccc2c1N1CC2(CCOCC2)c2nc(N)c(N3CCOCC3)cc21", "note": "[1′-(7-fluoro-3-methyl-2-(2-pyridinyl)-4-quinolinyl)-6′-(4-morpholinyl)-1′,2,2′,3,5,6-hexahydrospiro[pyran-4,3′-pyrrolo[3,2-b]pyridin]-5′-amine]", "Ki": 0.029}
{"compound": "Cc1c(-c2ccccn2)nc2cc(F)ccc2c1N1CC2(CCOCC2)c2nc(C#N)c(N3CCOCC3)cc21", "note": "[1′-(7-fluoro-3-methyl-2-(2-pyridinyl)-4-quinolinyl)-6′-(4-morpholinyl)-1′,2,2′,3,5,6-hexahydrospiro[pyran-4,3′-pyrrolo[3,2-b]pyridine]-5′-carbonitrile]", "Ki": 0.219}
{"compound": "Cc1nc2c(Cl)cccc2c(N2CC3(CCOCC3)c3ncc(N4CCOCC4)cc32)c1C", "note": "[1′-(8-chloro-2,3-dimethyl-4-quinolinyl)-6′-(4-morpholinyl)-1′,2,2′,3,5,6-hexahydrospiro[pyran-4,3′-pyrrolo[3,2-b]pyridine]]", "Ki": 0.00268}
{"compound": "Cc1c(N2CCOC(C)(C)C2)nc2cc(F)cc(F)c2c1N1CC(C)(C)c2ncc(N3CCOCC3)cc21", "note": "[2-(2,2-dimethyl-4-morpholinyl)-4-(3,3-dimethyl-6-(4-morpholinyl)-2,3-dihydro-1H-pyrrolo[3,2-b]pyridin-1-yl)-5,7-difluoro-3-methylquinoline]", "Ki": 0.00152}
{"compound": "Cc1c(-c2cc(F)ccc2F)nc2cc(F)ccc2c1N1CC(C)(C)c2ccc(N3CCOCC3)cc21", "note": "[2-(2,5-difluorophenyl)-4-(3,3-dimethyl-6-(4-morpholinyl)-2,3-dihydro-1H-indol-1-yl)-7-fluoro-3-methylquinoline]", "Ki": 0.0203}
{"compound": "Cc1c(-c2cc(C(F)(F)F)cc(C(F)(F)F)c2)nc2cccc(F)c2c1N1CC(C)(C)c2ccc(N3CCOCC3)cc21", "note": "[2-(3,5-bis(trifluoromethyl)phenyl)-4-(3,3-dimethyl-6-(4-morpholinyl)-2,3-dihydro-1H-indol-1-yl)-5-fluoro-3-methylquinoline]", "Ki": 3.78}
{"compound": "Cc1c(-c2cc(C(F)(F)F)cc(C(F)(F)F)c2)nc2cc(F)ccc2c1N1CC(C)(C)c2ccc(N3CCOCC3)cc21", "note": "[2-(3,5-bis(trifluoromethyl)phenyl)-4-(3,3-dimethyl-6-(4-morpholinyl)-2,3-dihydro-1H-indol-1-yl)-7-fluoro-3-methylquinoline]", "Ki": 3.08}
{"compound": "Cc1c(-c2cc(F)cc(F)c2)nc2cnccc2c1N1CC(C)(C)c2ncc(N3CCOCC3)cc21", "note": "[2-(3,5-difluorophenyl)-4-(3,3-dimethyl-6-(4-morpholinyl)-2,3-dihydro-1H-pyrrolo[3,2-b]pyridin-1-yl)-3-methyl-1,7-naphthyridine]", "Ki": 0.00236}
{"compound": "Cc1c(-c2cc(F)cc(F)c2)nc2ncccc2c1N1CC(C)(C)c2ncc(N3CCOCC3)cc21", "note": "[2-(3,5-difluorophenyl)-4-(3,3-dimethyl-6-(4-morpholinyl)-2,3-dihydro-1H-pyrrolo[3,2-b]pyridin-1-yl)-3-methyl-1,8-naphthyridine]", "Ki": 0.00311}
{"compound": "Cc1c(C2CC2)nc2ncccc2c1N1CC(C)(C)c2ncc(N3CCOCC3)cc21", "note": "[2-cyclopropyl-4-(3,3-dimethyl-6-(4-morpholinyl)-2,3-dihydro-1H-pyrrolo[3,2-b]pyridin-1-yl)-3-methyl-1,8-naphthyridine]", "Ki": 0.032}
{"compound": "Cc1c(-c2cccc(C#N)c2)nc2cc(F)ccc2c1N1CC(C)(C)c2ccc(N3CCOCC3)cc21", "note": "[3-(4-(3,3-dimethyl-6-(4-morpholinyl)-2,3-dihydro-1H-indol-1-yl)-7-fluoro-3-methyl-2-quinolinyl)benzonitrile]", "Ki": 0.154}
{"compound": "Cc1c(Cc2cccc(C#N)c2)nc2cc(F)cc(F)c2c1N1CC(C)(C)c2ncc(N3CCOCC3)cc21", "note": "[3-((4-(3,3-dimethyl-6-(4-morpholinyl)-2,3-dihydro-1H-pyrrolo[3,2-b]pyridin-1-yl)-5,7-difluoro-3-methyl-2-quinolinyl)methyl)benzonitrile]", "Ki": 0.00268}
{"compound": "Cc1cc(-c2ccc3c(c2)N(c2c(C)c(-c4ccccn4)nc4cc(F)ccc24)CC3(C)C)nc(N)n1", "note": "[4-(1-(7-fluoro-3-methyl-2-(2-pyridinyl)-4-quinolinyl)-3,3-dimethyl-2,3-dihydro-1H-indol-6-yl)-6-methyl-2-pyrimidinamine]", "Ki": 0.449}
{"compound": "Cc1c(-c2ccccn2)nc2cc(F)ccc2c1N1CC(C)(C)c2ncc(-c3cn[nH]c3)cc21", "note": "[4-(3,3-dimethyl-6-(1H-pyrazol-4-yl)-2,3-dihydro-1H-pyrrolo[3,2-b]pyridin-1-yl)-7-fluoro-3-methyl-2-(2-pyridinyl)quinoline]", "Ki": 0.0952}
{"compound": "Cc1nc2c(C)cccc2c(N2CC(C)(C)c3ccc(N4CCOCC4)cc32)c1C", "note": "[4-(3,3-dimethyl-6-(4-morpholinyl)-2,3-dihydro-1H-indol-1-yl)-2,3,8-trimethylquinoline]", "Ki": 0.044}
{"compound": "Cc1nc2c(C(F)(F)F)cccc2c(N2CC(C)(C)c3ccc(N4CCOCC4)cc32)c1C", "note": "[4-(3,3-dimethyl-6-(4-morpholinyl)-2,3-dihydro-1H-indol-1-yl)-2,3-dimethyl-8-(trifluoromethyl)quinoline]", "Ki": 0.516}
{"compound": "Cc1nc2ccccc2c(N2CC(C)(C)c3ccc(N4CCOCC4)cc32)c1C", "note": "[4-(3,3-dimethyl-6-(4-morpholinyl)-2,3-dihydro-1H-indol-1-yl)-2,3-dimethylquinoline]", "Ki": 0.362}
{"compound": "Cc1c(-c2ccccc2F)nc2ccccc2c1N1CC(C)(C)c2ccc(N3CCOCC3)cc21", "note": "[4-(3,3-dimethyl-6-(4-morpholinyl)-2,3-dihydro-1H-indol-1-yl)-2-(2-fluorophenyl)-3-methylquinoline]", "Ki": 0.047}
{"compound": "Cc1c(-c2ccccc2)nc2ccccc2c1N1CC(C)(C)c2ccc(N3CCOCC3)cc21", "note": "[4-(3,3-dimethyl-6-(4-morpholinyl)-2,3-dihydro-1H-indol-1-yl)-3-methyl-2-phenylquinoline]", "Ki": 0.0854}
{"compound": "Cc1cnc2ccccc2c1N1CC(C)(C)c2ccc(N3CCOCC3)cc21", "note": "[4-(3,3-dimethyl-6-(4-morpholinyl)-2,3-dihydro-1H-indol-1-yl)-3-methylquinoline]", "Ki": 0.654}
{"compound": "Cc1c(N2CCCCC2)nc2cc(F)cc(F)c2c1N1CC(C)(C)c2ccc(N3CCOCC3)cc21", "note": "[4-(3,3-dimethyl-6-(4-morpholinyl)-2,3-dihydro-1H-indol-1-yl)-5,7-difluoro-3-methyl-2-(1-piperidinyl)quinoline]", "Ki": 0.0737}
